The values below are quoted from earlier work in patent US20250032638A1, “Novel Cancer Treatments with TLR7/8 Agonists” (Ascendis Pharma Oncology Division A/S, priority 2021, published 2025).

For the data set the following is noted: resiquimod administered orally; systemic toxicity at higher doses (Journal of Hepatology 47 (2007) 174-182).

Turning to `CCOCc1nc2c(N)nc3ccccc3c2n1CC(C)(C)O` [resiquimod], the “systemic concentration that was well tolerated” value is reported as “about 4 ng/mL”.
